This passage reports IC50 results from the Kinase Knowledgebase extract (Sharma et al. 2016).

This assay addresses PIK3CA (human) (UniProt P42336). The assay is described as follows: Inhibition of PIK3CA Kinase Activity.

The structures appear in SMILES notation.

Sequence of PIK3CA (human) (P42336 whole entry, looked up): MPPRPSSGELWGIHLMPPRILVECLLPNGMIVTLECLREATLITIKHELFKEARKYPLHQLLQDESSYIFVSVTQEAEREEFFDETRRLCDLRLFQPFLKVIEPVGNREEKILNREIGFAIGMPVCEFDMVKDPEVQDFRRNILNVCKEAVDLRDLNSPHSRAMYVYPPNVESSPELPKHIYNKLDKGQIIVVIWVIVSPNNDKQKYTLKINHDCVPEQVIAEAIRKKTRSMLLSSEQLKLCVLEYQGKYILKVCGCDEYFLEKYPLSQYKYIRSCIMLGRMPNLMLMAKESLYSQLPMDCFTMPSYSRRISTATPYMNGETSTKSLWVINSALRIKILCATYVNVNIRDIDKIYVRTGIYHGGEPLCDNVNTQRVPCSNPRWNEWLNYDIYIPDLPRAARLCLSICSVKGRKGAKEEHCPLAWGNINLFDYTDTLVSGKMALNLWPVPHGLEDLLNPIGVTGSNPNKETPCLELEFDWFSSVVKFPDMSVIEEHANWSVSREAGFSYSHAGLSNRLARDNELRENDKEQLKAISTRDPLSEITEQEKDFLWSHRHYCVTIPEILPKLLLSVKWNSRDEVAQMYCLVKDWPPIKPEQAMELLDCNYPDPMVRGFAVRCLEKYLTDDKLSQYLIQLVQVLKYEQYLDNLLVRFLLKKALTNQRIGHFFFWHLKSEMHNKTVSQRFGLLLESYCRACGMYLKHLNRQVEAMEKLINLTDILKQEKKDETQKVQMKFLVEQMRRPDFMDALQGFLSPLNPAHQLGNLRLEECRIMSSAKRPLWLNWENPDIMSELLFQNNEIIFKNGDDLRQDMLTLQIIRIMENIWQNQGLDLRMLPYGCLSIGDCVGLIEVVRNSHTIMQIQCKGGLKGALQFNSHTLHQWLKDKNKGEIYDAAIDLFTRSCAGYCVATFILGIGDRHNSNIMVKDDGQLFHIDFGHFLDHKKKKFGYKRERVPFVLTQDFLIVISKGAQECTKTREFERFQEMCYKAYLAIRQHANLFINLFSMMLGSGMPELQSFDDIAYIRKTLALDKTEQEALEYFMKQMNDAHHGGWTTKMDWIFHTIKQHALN

On to `O=C(CCN1CCCCC1)Nc1ccc(Cn2cnc3c(-c4cccc(O)c4)nc(N4CCOCC4)nc32)cc1`, for which the concentration for half-maximal inhibition (IC50) is less than 1 µM.

`c1nc2cc(-c3nc(N4CCOCC4)nc4c3ncn4CC3CC3)ccc2[nH]1` returned an IC50 of less than 1 µM.

`CC(C)(C)OC(=O)N1CCC(n2cnc3c(-c4cccc5[nH]ccc45)nc(N4CCOCC4)nc32)C1` (stereo not given): the IC50 is less than 1 µM.

Molecule `CS(=O)(=O)N1CCN(CCn2cnc3c(-c4cccc(O)c4)nc(N4CCOCC4)nc32)CC1` displayed an IC50 of less than 1 µM.

The molecule `CC1CCC(n2cnc3c(-c4cnc(N)nc4)nc(N4CCOCC4)nc32)CC1` (stereo not given) had an IC50 of less than 1 µM.

On to `Nc1ccc(Cn2cnc3c(-c4cccc(O)c4)nc(N4CCOCC4)nc32)cc1`, for which the IC50 was less than 1 µM.

`Oc1cccc(-c2nc(N3CCOCC3)nc3c2ncn3C2CCCCO2)c1` (stereo not given) displayed a half-maximal inhibitory concentration (IC50) of less than 1 µM.

In turn, `CCC(C#N)n1cnc2c(-c3cccc4[nH]ccc34)nc(N3CCOCC3)nc21` (stereo not given) registered an IC50 of less than 1 µM.

In the case of `CCC(C)n1cnc2c(-c3ccc(N)nc3)nc(N3CCOCC3)nc21` (stereo not given), the IC50 is less than 1 µM.

`c1cc(-c2nc(N3CCOCC3)nc3c2ncn3C2CCCC2)c2cc[nH]c2c1` displayed an IC50 of less than 1 µM.

As for `CCC(C)n1cnc2c(-c3cncnc3)nc(N3CCOCC3)nc21` (stereo not given), the IC50 was less than 1 µM.

The molecule `O=[N+]([O-])c1ccc(Cn2cnc3c(-c4cccc(O)c4)nc(N4CCOCC4)nc32)cc1` showed an IC50 of less than 1 µM.

`CC(C)NC(=O)Cn1cnc2c(-c3cccc(O)c3)nc(N3CCOCC3)nc21` had a concentration for half-maximal inhibition (IC50) of less than 1 µM.

On to `C=CCCn1cnc2c(-c3cccc(O)c3)nc(N3CCOCC3)nc21`, for which the IC50 was less than 1 µM.

In the case of `Oc1cccc(-c2nc(N3CCOCC3)nc3c2ncn3C2CCOC2)c1` (stereo not given), the concentration for half-maximal inhibition (IC50) was less than 1 µM.

In turn, `CCNc1ccc(Cn2cnc3c(-c4cccc(O)c4)nc(N4CCOCC4)nc32)cc1` displayed a half-maximal inhibitory concentration (IC50) of less than 1 µM.

Consider `Nc1ncc(-c2nc(N3CCOCC3)nc3c2ncn3C2CCc3ccccc3C2)cn1` (stereo not given), for which the 50% inhibitory concentration (IC50) was less than 1 µM.

Molecule `CCN(CC)CCn1cnc2c(-c3cccc(O)c3)nc(N3CCOCC3)nc21` showed a half-maximal inhibitory concentration (IC50) of less than 1 µM.

Molecule `Nc1ncc(-c2nc(N3CCOCC3)nc3c2ncn3C2CCCC2)cn1` displayed an IC50 of less than 1 µM.

Turning to `COCC(C)n1cnc2c(-c3cccc4[nH]ccc34)nc(N3CCOCC3)nc21` (stereo not given), the half-inhibitory concentration (IC50) was less than 1 µM.

`CCC(C)n1c(-c2ccccc2)nc2c(-c3cccc(O)c3)nc(N3CCOCC3)nc21` (stereo not given) yielded an IC50 of less than 1 µM.

As for `CCC(C)n1c(NCCN(C)C)nc2c(-c3cccc(O)c3)nc(N3CCOCC3)nc21` (stereo not given), the concentration for half-maximal inhibition (IC50) is less than 1 µM.

Molecule `CCC(CC)n1cnc2c(-c3cnc(N)nc3)nc(N3CCOCC3)nc21` came in with an IC50 of less than 1 µM.

The molecule `Nc1ncc(-c2nc(N3CCOCC3)nc3c2ncn3CC2CC2)cn1` came in with a half-inhibitory concentration (IC50) of less than 1 µM.

The molecule `Oc1cccc(-c2nc(N3CCOCC3)nc3c2ncn3Cc2cc(F)cc(F)c2)c1` had an IC50 of less than 1 µM.

Molecule `CCC(C)n1c(Br)nc2c(-c3cccc(O)c3)nc(N3CCOCC3)nc21` (stereo not given) displayed an IC50 of less than 1 µM.

On to `Nc1ccc(-c2nc(N3CCOCC3)nc3c2ncn3Cc2cccc([N+](=O)[O-])c2)cn1`, for which the IC50 is less than 1 µM.

Molecule `Oc1cc(F)cc(-c2nc(N3CCOCC3)nc3c2ncn3Cc2ccccc2)c1` registered an IC50 of less than 1 µM.

Take `CCC(C)n1c(NC(C)C)nc2c(-c3cccc(O)c3)nc(N3CCOCC3)nc21` (stereo not given): the half-maximal inhibitory concentration (IC50) is less than 1 µM.

Molecule `CCC(C)n1c(N2CCCC2)nc2c(-c3cccc(O)c3)nc(N3CCOCC3)nc21` (stereo not given) registered a half-inhibitory concentration (IC50) of less than 1 µM.

In turn, `CCC(C)n1cnc2c(-c3cccc4[nH]ncc34)nc(N3CCOCC3)nc21` (stereo not given) returned an IC50 of less than 1 µM.

`CCC(C)n1cnc2c(-c3cnc(N)nc3)nc(N3CCOC[C@@H]3C)nc21` (stereo not given in full) displayed an IC50 of less than 1 µM.

In turn, `CS(=O)(=O)Nc1ccc(Cn2cnc3c(-c4cccc(O)c4)nc(N4CCOCC4)nc32)cc1` had a concentration for half-maximal inhibition (IC50) of less than 1 µM.

`CCC(C)n1cnc2c(-c3cccc(O)c3)nc(N3CCOCC3)nc21` (stereo not given) had an IC50 of less than 1 µM.

For `CCCC(=O)N1CCC(n2cnc3c(-c4cnc(N)nc4)nc(N4CCOCC4)nc32)CC1`, the concentration for half-maximal inhibition (IC50) is less than 1 µM.

`CC(C)n1cnc2c(-c3ccc(N)nc3)nc(N3CCOCC3)nc21` displayed a concentration for half-maximal inhibition (IC50) of less than 1 µM.

The molecule `CCC(C)n1c(S(C)(=O)=O)nc2c(-c3cccc(O)c3)nc(N3CCOCC3)nc21` (stereo not given) gave a 50% inhibitory concentration (IC50) of less than 1 µM.

In the case of `CC(COC(C)(C)C)n1cnc2c(-c3cnc(N)nc3)nc(N3CCOCC3)nc21` (stereo not given), the IC50 was less than 1 µM.

Molecule `CC(C1CC1)n1cnc2c(-c3cccc4[nH]ccc34)nc(N3CCOCC3)nc21` (stereo not given) showed an IC50 of less than 1 µM.

`CC(C)(C)OC(=O)N1CCC(n2cnc3c(-c4cnc(N)nc4)nc(N4CCOCC4)nc32)CC1` came in with an IC50 of less than 1 µM.
